# From PubChem BioAssay AID1745844 (Carcinogenic Potency Database (CPDB), 2022)
# Active and inactive are the calls of the source. How the calls were made is not given here.
# Test system: rodent lifetime carcinogenesis bioassay, tumor incidence TD50
# Assay: carcinogenic potency in animals, long-term in vivo studies, CPDB compilation (AID 1745844)
smiles,measurement,setting,value
C/C=C(/C)C(=O)O[C@H]1CCN2CC=C(COC(=O)[C@@](O)([C@H](C)OC)C(C)(C)O)[C@H]12,TD50,"rat, strain Fischer 344, females, in feed, site: any site (literature study), lesion: several types, types named in the paper, dosed 92 weeks, study length 104 weeks",0.102 mg/kg/day
same,TD50,"rat, strain Fischer 344, females, in feed, site: liver + multiple organs, lesion: adenoma, NOS + angiosarcoma + hepatocellular carcinoma + granulocytic leukemia + leukemia + lymphocytic leukemia + lymphoma + undiffer, dosed 92 weeks, study length 104 weeks",0.141 mg/kg/day
same,TD50,"rat, strain Fischer 344, females, in feed, site: liver, lesion: adenoma, NOS + hepatocellular carcinoma, dosed 92 weeks, study length 104 weeks",0.453 mg/kg/day
same,TD50,"rat, strain Fischer 344, females, in feed, site: liver, lesion: angiosarcoma, dosed 92 weeks, study length 104 weeks",0.355 mg/kg/day
same,TD50,"rat, strain Fischer 344, females, in feed, site: liver, lesion: hepatocellular adenoma + hepatocellular carcinoma + neoplastic nodule, dosed 92 weeks, study length 104 weeks",22.7 mg/kg/day
same,TD50,"rat, strain Fischer 344, females, in feed, site: multiple organs, lesion: granulocytic leukemia + lymphocytic leukemia + undifferentiated leukemia, dosed 92 weeks, study length 104 weeks",0.387 mg/kg/day
same,TD50,"rat, strain Fischer 344, females, in feed, site: multiple organs, lesion: leukemia + lymphoma, dosed 92 weeks, study length 104 weeks",0.325 mg/kg/day
same,TD50,"rat, strain Fischer 344, males, i.p., site: any site (literature study), lesion: several types, types named in the paper, dosed 56 weeks, study length 76 weeks",0.152 mg/kg/day
same,TD50,"rat, strain Fischer 344, males, i.p., site: liver, lesion: hepatocellular carcinoma, dosed 56 weeks, study length 76 weeks",0.397 mg/kg/day
same,TD50,"rat, strain Fischer 344, males, i.p., site: liver, lesion: several types, types named in the paper, dosed 56 weeks, study length 76 weeks",0.341 mg/kg/day
same,TD50,"rat, strain Fischer 344, males, i.p., site: lung, lesion: adenoma, dosed 56 weeks, study length 76 weeks",1.33 mg/kg/day
same,TD50,"rat, strain Fischer 344, males, i.p., site: skin, lesion: squamous-cell carcinoma, dosed 56 weeks, study length 76 weeks",0.794 mg/kg/day
same,TD50,"rat, strain Fischer 344, males, i.p., site: small intestine, lesion: adenocarcinoma, dosed 56 weeks, study length 76 weeks",2.73 mg/kg/day
same,TD50,"rat, strain Fischer 344, males, in feed, site: all sites, lesion: leukemia + lymphoma, dosed 98 weeks, study length 104 weeks",0.514 mg/kg/day
same,TD50,"rat, strain Fischer 344, males, in feed, site: any site (literature study), lesion: several types, types named in the paper, dosed 55 weeks, study length 59 weeks",0.217 mg/kg/day
same,TD50,"rat, strain Fischer 344, males, in feed, site: any site (literature study), lesion: several types, types named in the paper, dosed 98 weeks, study length 104 weeks",0.152 mg/kg/day
same,TD50,"rat, strain Fischer 344, males, in feed, site: liver, lesion: adenoma, NOS + angiosarcoma + hepatocellular carcinoma, dosed 98 weeks, study length 104 weeks",0.25 mg/kg/day
same,TD50,"rat, strain Fischer 344, males, in feed, site: liver, lesion: adenoma, NOS + hepatocellular carcinoma, dosed 98 weeks, study length 104 weeks",0.908 mg/kg/day
same,TD50,"rat, strain Fischer 344, males, in feed, site: liver, lesion: angiosarcoma, dosed 55 weeks, study length 59 weeks",0.688 mg/kg/day
same,TD50,"rat, strain Fischer 344, males, in feed, site: liver, lesion: angiosarcoma, dosed 98 weeks, study length 104 weeks",0.355 mg/kg/day
same,TD50,"rat, strain Fischer 344, males, in feed, site: liver, lesion: carcinoma, dosed 55 weeks, study length 59 weeks",0.954 mg/kg/day
same,TD50,"rat, strain Fischer 344, males, in feed, site: liver, lesion: hepatocellular adenoma + hepatocellular carcinoma + neoplastic nodule, dosed 98 weeks, study length 104 weeks",7.43 mg/kg/day
CCNC(=O)N(CCO)N=O,TD50,"rat, strain Fischer 344, females, in drinking water, site: mammary tissue, wider than the gland, lesion: carcinoma, dosed 30 weeks, study length 104 weeks",0.501 mg/kg/day
same,TD50,"rat, strain Fischer 344, males, in drinking water, site: liver, lesion: one or several types, types not named, dosed 30 weeks, study length 104 weeks",1.09 mg/kg/day
same,TD50,"rat, strain Fischer 344, males, in drinking water, site: lung, lesion: one or several types, types not named, dosed 30 weeks, study length 104 weeks",0.446 mg/kg/day
same,TD50,"rat, strain Fischer 344, males, in drinking water, site: nervous system, lesion: one or several types, types not named, dosed 30 weeks, study length 104 weeks",0.754 mg/kg/day
same,TD50,"rat, strain Fischer 344, males, in drinking water, site: skin, lesion: one or several types, types not named, dosed 30 weeks, study length 104 weeks",0.641 mg/kg/day
same,TD50,"rat, strain Fischer 344, males, in drinking water, site: tunica vaginalis, lesion: mesothelioma, dosed 30 weeks, study length 104 weeks",0.576 mg/kg/day
NC(=O)CCCCC(N)=O,carcinogen call,"mouse, strain C57BL/6, females, in feed, site: liver, lesion: hepatocellular carcinoma, dosed 52 weeks, study length 69 weeks",negative (inactive)
same,TD50,"mouse, strain C57BL/6, females, in feed, site: lung, lesion: alveolar/bronchiolar adenoma, dosed 52 weeks, study length 69 weeks",8550 mg/kg/day (inactive)
same,carcinogen call,"mouse, strain C57BL/6, males, in feed, site: liver, lesion: hepatocellular carcinoma, dosed 52 weeks, study length 69 weeks",negative (inactive)
same,carcinogen call,"mouse, strain C57BL/6, males, in feed, site: lung, lesion: alveolar/bronchiolar adenoma, dosed 52 weeks, study length 69 weeks",negative (inactive)
same,carcinogen call,"rat, strain Fischer 344, females, in feed, site: liver, lesion: one or several types, types not named, dosed 52 weeks, study length 69 weeks",negative (inactive)
same,TD50,"rat, strain Fischer 344, males, in feed, site: liver, lesion: hepatocellular carcinoma, dosed 52 weeks, study length 69 weeks",6420 mg/kg/day
